Columns and labels:
Mycobacterium abscessus = assay: Anti-mycobacterial activity in infected THP-1 macrophages (CFU of cell lysates); format: cell-based
Method: Modification of the Dulbecco Eagle medium (Cellgro 15-017-cv) supplemented with: • Heat-inactivated fetal calf serum (Atlas Biologicals, Fort Collins, CO, F-0500-A) (10%) • LCM (10%)
Medium conditioned by L929: L-929 (CCL-1) (ATCC) cells secrete the macrophage colony-stimulating factor (M-CSF), the cytokine that differentiates bone marrow macrophages/monocyte progenitors into a homogeneous population of mature macrophages. They are seeded at 4.7×10^5 cells in 55 ml of DMEM+10% of fetal calf serum in a ball of 75 cm2. Cells are left to grow for 3 days and then the supernatant is collected and filtered through a 0.45 μm filter, aliquoted and frozen at −20° C.
The cell-free filtrate is used in DMEM media. • L-glutamine (Sigma G-7513) (2 mM) • HEPES buffer (Sigma H-0887) (10 mM) Antibiotic/antimycotic (Sigma A-9909) (1×) • non-essential amino acids MEM (Sigma M-7145) (1×) • 2-mercaptoethanol (Sigma M-6250) (50 nM)
THP-1 cells were expanded for 2 weeks.
Complete DMEM media free of antibiotic/antimycotic were not changed during the 3-day test.
On day 0, the media were removed from the cells and replaced with 0.2 mL of antibiotic/antimycotic-free DMEM containing Mycobacterium abscessus at a ratio of 10 bacteria per macrophage.
The tissue culture plates were placed inside closed Ziploc bags and transported to the incubator. Once inside the incubator, the bags were opened. The cells were incubated with the bacteria for 2 hours.
After the infection, the extracellular bacteria were removed by washing each well once with PBS. Then 2 mL of complete DMEM medium free of antibiotics/antimycotics and various drug concentrations were added.
Each drug concentration was tested in triplicate. Culture plates were incubated with antibiotics at 37° C.+5% CO2 for 3 days.

[1] = Storage of a solution of tigecycline (degradation in aqueous solution); format: physicochemical; settings: degradation by oxidation and epimerization; 24 hours at 5° C., 25° C. and 40° C.

## CN(C)c1cc(NC(=O)CNC(C)(C)C)c(O)c2c1C[C@H]1C[C@H]3[C@H](N(C)C)C(O)=C(C(N)=O)C(=O)[C@@]3(O)C(O)=C1C2=O [Pure Tigecycline, tigecycline]
Mycobacterium abscessus; pure tigecycline 1 μg/ml
  Day 1 CFU: 287 CFU
  Day 2 CFU: 2067 CFU
  Day 3 CFU: 2667 CFU
Mycobacterium abscessus; pure tigecycline 2 μg/ml
  Day 1 CFU: 263 CFU
  Day 2 CFU: 203 CFU
  Day 3 CFU: 1743 CFU
Mycobacterium abscessus; pure tigecycline 4 μg/ml
  Day 1 CFU: 427 CFU
  Day 2 CFU: 123 CFU
  Day 3 CFU: 267 CFU
Mycobacterium abscessus; pure tigecycline 8 μg/ml
  Day 1 CFU: 303 CFU
  Day 2 CFU: 203 CFU
  Day 3 CFU: 220 CFU
Mycobacterium abscessus; pure tigecycline 16 μg/ml
  Day 1 CFU: 333 CFU
  Day 2 CFU: 203 CFU
  Day 3 CFU: 153 CFU
Mycobacterium abscessus; pure tigecycline 24 μg/ml
  Day 1 CFU: 287 CFU
  Day 2 CFU: 90 CFU
  Day 3 CFU: 143 CFU
[1]
  stability in aqueous solution: extremely unstable
